Laboratory results published in patent publication US6469003B1, “Pyridazinone derivatives” (Nihon Nohyaku Co., Ltd., priority 1998, dated 2002).
Where two headings read alike, the source gives them in different places.

Tests used:
[1] = test system: neutrophils isolated from human peripheral blood; test: Test of neutrophil adhesion inhibitory activity (fMLP-induced adhesion to keyhole limpet hemocyanin-coated plate); type: cell-based; conditions: fluorescence-labeled, fMLP final concentration of 50 nM, plate coated with keyhole limpet hemocyanin, 37° C., read-out: Test of neutrophil adhesion inhibitory (50% inhibition concentration) IC50
Description: Test Example (Test of Neutrophil Adhesion Inhibitory Activity)
To a 96 hole culture plate coated with keyhole limpet hemocyanin were added Dulbecco modified Eagle's media (DMEM, 25 μl) containing various concentrations of the test substance. The neutrophils isolated from human peripheral blood were labeled with fluorescence by means of 5,6-carboxyfluorescein diacetate, suspended into DMEM in a concentration of 1×10^6 cells/ml, and inoculated to the above plate in an amount of 50 μl. Then, after the addition of 25 μl of formylmethionyl-leucyl-phenylalanine (hereinafter referred to as “fMLP”) (final concentration of 50 nM), the cells were cultured at 37° C. for a certain period of time to induce the adhesion of the neutrophils to the plate. After culturing, the plate was washed with phosphate-buffered physiological saline to remove the neutrophils which were not adhered. The adhered neutrophils were dissolved and then the fluorescence intensity was measured. Using the data of a non-stimulated group where the stimulation with fMLP was not carried out and an fMLP-stimulated group where the stimulation was carried out, the adhesion inhibition rate at each concentration of the test substance was determined according to the following equation. From the concentration-inhibition curve, 50% inhibitory concentration (IC50) was calculated.
Adhesion inhibition rate (%)=(Fmax−Fx)/(Fmax−Fo)×100
Fx: the fluorescence intensity of the group treated with a test substance
Fmax: the fluorescence intensity of the fMLP-stimulated group
Fo: the fluorescence intensity of the non-stimulated group

SMILES	melting point	IC50 [1]	IC50 ([1]; Neutrophil)
CC(=O)c1nn(-c2ccc(F)cc2)c(=O)c(OCc2cccnc2)c1C.Cl	153 to 156 °C		
CC(=O)c1nn(-c2cccc(Cl)c2)c(=O)c(Sc2ccccc2Cl)c1C [Compound 1-01]		16 nM	
CC(=O)c1nn(-c2cccc(Cl)c2)c(=O)c(Sc2ccc(Cl)cc2)c1C [Compound 1-03]		27 nM	
COc1ccccc1Sc1c(C)c(C(C)=O)nn(-c2cccc(Cl)c2)c1=O [Compound 1-04]		619 nM	
COc1cccc(Sc2c(C)c(C(C)=O)nn(-c3cccc(Cl)c3)c2=O)c1 [Compound 1-05]		32 nM	
COc1ccc(Sc2c(C)c(C(C)=O)nn(-c3cccc(Cl)c3)c2=O)cc1 [Compound 1-06]		40 nM	
CC(=O)c1nn(-c2cccc(Cl)c2)c(=O)c(Sc2ccc(F)cc2)c1C [Compound 1-07]		20 nM	
CC(=O)c1nn(-c2cccc(Cl)c2)c(=O)c(Sc2ccc(C)cc2)c1C [Compound 1-08]		139 nM	
CC(=O)c1nn(-c2cccc(Cl)c2)c(=O)c(Sc2ccc([N+](=O)[O-])cc2)c1C [Compound 1-10]		93 nM	
CC(=O)c1nn(-c2cccc(Cl)c2)c(=O)c(Sc2ccccn2)c1C [Compound 1-11]		79 nM	
CSc1c(C)c(C(C)=O)nn(-c2cccc(Cl)c2)c1=O [Compound 1-15]		58 nM	
CC(=O)c1nn(-c2cccc(Cl)c2)c(=O)c(SC(C)(C)C)c1C [Compound 1-17]		19 nM	
CC(=O)c1nn(-c2ccc(F)cc2)c(=O)c(Sc2ccc(F)cc2)c1C [Compound 1-20]		5 nM	
CC(=O)c1nn(-c2ccc(F)cc2)c(=O)c(Sc2ccccn2)c1C [Compound 1-21]		196 nM	
CC(=O)c1nn(-c2ccc(F)cc2)c(=O)c(Sc2cccnc2)c1C [Compound 1-22]		9 nM	
CC(=O)c1nn(-c2ccc(F)cc2)c(=O)c(Sc2cccnc2)c1C [Compound 1-23]		6 nM	
CC(=O)c1nn(-c2ccc(F)cc2)c(=O)c(Sc2ccncc2)c1C [Compound 1-24]		14 nM	
CC(=O)c1nn(-c2ccc(F)cc2)c(=O)c(Sc2ccncc2)c1C [Compound 1-25]		10 nM	
CC(=O)c1nn(-c2ccc(Cl)cc2)c(=O)c(Sc2ccc(Cl)cc2)c1C [Compound 1-29, 6-acetyl-2-(4-chlorophenyl)-4-(4-chlorophenylthio)-5-methyl-3(2H)-pyridazinone]	165 to 166 °C		
CC(=O)c1nn(-c2cccnc2)c(=O)c(Sc2ccc(F)cc2)c1C [Compound 1-31]		55 nM	
CC(=O)c1nn(-c2cccnc2)c(=O)c(Sc2ccncc2)c1C [Compound 1-32]		165 nM	
CC(=O)c1nn(-c2cccc(Cl)c2)c(=O)c(Sc2ccccc2)c1C [Compound 1-64, 6-acetyl-2-(3-chlorophenyl)-5-methyl-4-phenylthio-3(2H)-pyridazinone]	99 to 100 °C		4 nM
CC(=O)c1nn(-c2cccnc2)c(=O)c(Sc2ccccc2)c1C [Compound 1-68]		7 nM	

SMILES	melting point	IC50 [1]	IC50 ([1]; Neutrophil)
CC(=O)c1nn(-c2ccc(Cl)cc2)c(=O)c(Sc2ccccc2)c1C [Compound 1-69]		222 nM	
CC(=O)c1nn(-c2cccc(Cl)c2)c(=O)c(Oc2ccccc2)c1C [Compound 1-70]		18 nM	
CC(=O)c1nn(-c2cccc(Cl)c2)c(=O)c(Oc2ccc(F)cc2)c1C [Compound 1-73]		32 nM	
CC(=O)c1nn(-c2cccc(F)c2)c(=O)c(Oc2ccc(F)cc2)c1C [Compound 1-74]		48 nM	
O=C(O)c1cc(CSc2ccc(F)cc2)c(=O)n(-c2cccc(Cl)c2)n1 [Compound 1-80, 1-(3-chlorophenyl)-5-(4-fluorophenylthio)-methyl-6-oxohydropridazin-3-carboxylic acid]		668 nM	
CC(=O)c1nn(-c2cccc(Cl)c2)c(=O)c(S(=O)(=O)c2ccccc2)c1C [Compound 1-83, 6-acetyl-2-(3-chlorophenyl)-5-methyl-4-phenylsulfonyl-3(2H)-pyridazinone]	175 to 176 °C		12 nM
CC(=O)c1nn(-c2cccc(Cl)c2)c(=O)c([S+]([O-])c2ccccc2)c1C (centres unmarked) [Compound 1-84]		10 nM	
CC(=O)c1nn(-c2cccc(Cl)c2)c(=O)c(-c2cccs2)c1C [Compound 1-97, 6-acetyl-2-(3-chlorophenyl)-5-methyl-4-(2-thienyl)-3(2H)-pyridazinone]	116 to 117 °C		11 nM
CC(=O)c1nn(-c2cccc(F)c2)c(=O)c(-c2cccs2)c1C [Compound 1-98]		656 nM	
CC(=O)c1nn(-c2ccc(F)cc2)c(=O)c(-c2cccs2)c1C [Compound 1-100]		410 nM	
CC(=O)c1nn(-c2cccnc2)c(=O)c(-c2cccs2)c1C [Compound 1-102]		310 nM	
CC(=O)c1nn(-c2ccc(F)cc2)c(=O)c(OCc2ccccn2)c1C [Compound 1-113]		358 nM	
CC(=O)c1nn(-c2ccc(F)cc2)c(=O)c(OCc2ccncc2)c1C [Compound 1-115]		44 nM	
CC(=O)c1nn(-c2ccc(F)cc2)c(=O)c(OCc2cc[n+]([O-])cc2)c1C [Compound 1-130, 6-acetyl-2-(4-fluorophenyl)-5-methyl-4-((4-pyridyl N-oxide)methoxy)-3(2H)-pyridazinone]		138 nM	
CC(=O)c1nn(-c2ccc[n+]([O-])c2)c(=O)c(Sc2ccc(F)cc2)c1C [Compound 1-134, 6-acetyl-4-(4-fluorophenylthio)-5-methyl-2-(3-pyridyl N-oxide)-3(2H)-pyridazinone]		463 nM	
CC(=O)Nc1ccc(Sc2c(C)c(C(C)=O)nn(-c3ccc[n+]([O-])c3)c2=O)cc1 [Compound 1-151]		975 nM	
CC(=O)c1nn(-c2cccc(Cl)c2)c(=O)c(C(N)=S)c1C [Compound 1-153, 6-acetyl-4-(aminothioxomethyl)-2-(3-chlorophenyl)-5-methyl-3(2H)-pyridazinone]	195 to 197 °C		
CC(=O)c1nn(-c2cccc(Cl)c2)c(=O)c(-c2nccs2)c1C [Compound 1-155, 6-acetyl-2-(3-chlorophenyl)-5-methyl-4-(1,3-thiazol-2-yl)-3(2H)-pyridazinone]	158 to 160 °C		
CC(=O)c1nn(-c2ccc(F)cc2)c(=O)c(Sc2ccc(NS(C)(=O)=O)cc2)c1C [Compound 4-01, 6-acetyl-2-(4-fluorophenyl)-5-methyl-4-(4-methylsulfonylaminophenylthio)-3(2H)-pyridazinone]	182 to 184 °C		
CC(=O)c1nn(-c2ccc(F)cc2)c(=O)c(Sc2ccc(N(C)C)cc2)c1C [Compound 4-04, 6-acetyl-4-(4-dimethylaminophenylthio)-2-(4-fluorophenyl)-5-methyl-3(2H)-pyridazinone]	172 to 174 °C		
CC(=O)c1nn(-c2ccc(F)cc2)c(=O)c(SCCN2CCOCC2)c1C [Compound 5-04, 6-acetyl-2-(4-fluorophenyl)-5-methyl-4-(2-morpholin-4-ylethylthio)-3(2H)-pyridazinone]	92 to 93 °C		
Cc1c(C(C)O)nn(-c2cccc(Cl)c2)c(=O)c1Sc1ccccc1 (centres unmarked) [Compound 6-01, 2-(3-chlorophenyl)-6-(1-hydroxyethyl)-5-methyl-4-phenylthio-3(2H)-pyridazinone]	180 to 182 °C		9 nM
Cc1c(C(C)O)nn(-c2ccc(F)cc2)c(=O)c1Sc1ccncc1 (centres unmarked) [Compound 6-02]		306 nM	
